According to patent US20100099762A1, “COMBINATION THERAPY” (THE MENTAL HEALTH RESEARCH INSTITUTE OF VICTORIA, priority 2006, published 2010):
Marks after values point to notes of the source that are not given here.

Test system: schizophrenia
Experiment: Randomised double blind multicentre placebo controlled trial of NAC in combination with an antipsychotic agent in schizophrenia
Assay type: in vivo, human
Description: There is preclinical evidence of a reduction in antioxidant defences in schizophrenia, particularly a reduction in glutathione, which is a primary endogenous antioxidant defence. N-acetyl cysteine (NAC) is a bioavailable precursor of glutathione. This Example is a randomised double blind multicentre placebo controlled trial of the use of NAC in combination with an antipsychotic agent in the treatment of schizophrenia. A total of 140 individuals were randomised to receive 2 g daily of NAC in two divided doses, or placebo, together with their normal dosage of antipsychotic agent.
Participants were assigned randomly and consecutively to treatment with NAC or placebo in a double blind fashion. The randomisation log was generated by an independent individual using the traditional coin tossing method. The investigators and clinicians remained blind until data analysis was completed. The person generating the randomisation schedule was not involved in participant interviews, either for participant eligibility or outcome measurements.
All participants remained on their usual antipsychotic medication for the duration of the trial. The dose of the primary therapy was monitored. Participants were recruited through advertisements, referral by case clinicians and through database screening. All participants provided written informed consent as part of complying with the protocol.
All randomised participants received two NAC (500 mg) capsules twice daily, to a total dose of 2 g daily, or matching placebo capsules. Human dosing can be up to 5 g/day without adverse effects (Louwerse E. S. et al., 1995). A daily dose that is within the range of efficacy in published clinical trials (Adair J. C. et al., 2001, Van Schooten F. J. et al., 2002, and Behr J, et al., 2002) was selected. Once per day dosing is desirable in the drug treatment of schizophrenia, where medication compliance is known to be a challenge in management. However, steady state plasma levels cannot be achieved with a once daily oral dose of NAC as the plasma half-life is only 2-3 hours (Holdiness M. R., 1991 and Kelly G. S., 1998). While a twice-daily (BID) dosing regimen would also not be expected to achieve steady state plasma levels, dose intervals beyond BID were considered to markedly increase the risk of non-compliance in this population.
To be included, the patients were required to meet Diagnostic and Statistical Manual of Mental Disorders, fourth edition (DSM-IV) (Association AP, 1994) criteria for schizophrenia and have a PANSS total score of ≧55, or at least two items in the positive and/or negative items being >3, or have a CGI-S≧3. They needed to have the capacity to consent to the study, and be aged between 18 and 65. Both inpatients and outpatients were eligible. Participants needed to be currently taking an antipsychotic agent and to be utilising effective contraception if female and of childbearing age. Exclusion criteria included patients with abnormal renal, hepatic, thyroid or haematological findings, patients with a systemic medical disorder including asthma, allergies or any history of bronchospasm, respiratory insufficiency and recent gastrointestinal ulcers and females who were positive on pregnancy screening testing at baseline. Participants who were taking a mood stabiliser (e.g. lithium, valproate and carbamazepine) were excluded as were those currently taking drugs that are known to prevent GSH depletion (500+mg of NAC/day, 200+ug of selenium/day or 500+IU of Vitamin E/day).
Withdrawal from the trial occurred if participants ceased taking their trial medication for seven consecutive days, or ceased effective contraception, or became pregnant. A change in primary antipsychotic from one medication to another required participants to be withdrawn from the study. Similarly, the addition of a mood stabiliser required withdrawal of the participant. Dose changes to existing medications were not an exclusion criterion, and this was monitored. […]

[1] = score at week 24, end of treatment
[2] = washout, week 28, LOCF ANCOVA with interaction term
[3] = week 8, LOCF ANCOVA, Placebo-NAC
[4] = week 24, LOCF ANCOVA, Placebo-NAC
[5] = week 24 to washout, week 28, LOCF ANCOVA
[6] = week 24 to washout, week 28, LOCF ANCOVA with interaction term

`CC(=O)N[C@@H](CS)C(=O)O` [NAC, N-acetyl cysteine] was tested, and the “PANSS General: NAC Mean Week 24 (SD)” value [1] was 28.8 (8.5), the “PANSS Negative: NAC Mean Week 24 (SD)” value [1] was 13.7 (4.9) and the “PANSS Positive: NAC Mean Week 24 (SD)” value [1] was 14.5 (5.6). The “PANSS Total: NAC Mean Week 24 (SD)” value [1] was 57.0 (16.1), the “SAS: NAC Mean Week 24 (SD)” value [1] was 1.6 (1.3) and the “SOFAS: NAC Mean Week 24 (SD)” value [1] was 58.8 (12.7). For the same molecule, the “Onset of clinical benefit on CGI-I (scores significantly better than placebo)” value (time from commencing treatment, Fisher's categorical analysis) was no more than 4 weeks, the “Onset of clinical benefit on CGI-S (scores significantly better than placebo)” value (time from commencing treatment, MMRM) was no more than 2 weeks and the “AIMS: LS Mean Difference (95% CI) between placebo and NAC at post-treatment discontinuation” value (washout, week 28, LOCF ANCOVA) was −0.40 (−1.41, 0.61). The “BAS: LS Mean Difference (95% CI) between placebo and NAC at post-treatment discontinuation” value (washout, week 28, LOCF ANCOVA) was −0.31 (−0.91, 0.29)^‡, the “GAF: LS Mean Difference (95% CI) between placebo and NAC at post-treatment discontinuation” value (washout, week 28, LOCF ANCOVA) was 0.61 (−3.5, 4.72)^‡ and the “PANSS Positive: LS Mean Difference (95% CI) between placebo and NAC at post-treatment discontinuation” value (washout, week 28, LOCF ANCOVA) was 0.75 (−0.72, 2.22). The “SAS: LS Mean Difference (95% CI) between placebo and NAC at post-treatment discontinuation” value (washout, week 28, LOCF ANCOVA) was −0.52 (−0.99, −0.05)*, the “SOFAS: LS Mean Difference (95% CI) between placebo and NAC at post-treatment discontinuation” value (washout, week 28, LOCF ANCOVA) was −1.17 (−4.89, 2.55) and the “PANSS General: LS Mean Difference (95% CI) between placebo and NAC at post-treatment discontinuation” value [2] was −0.85 (−3.45, 1.75)^‡. For the same molecule, the “PANSS Negative: LS Mean Difference (95% CI) between placebo and NAC at post-treatment discontinuation” value [2] was −1.58 (−3.17, 0.00)^‡, the “PANSS Total: LS Mean Difference (95% CI) between placebo and NAC at post-treatment discontinuation” value [2] was −2.70 (−6.85, 1.45)^‡ and the “AIMS: Between Placebo-NAC differences Week 8 LS Mean Difference (95% CI)” value [3] was −0.31 (−1.0, 0.41). The “BAS: Between Placebo-NAC differences Week 8 LS Mean Difference (95% CI)” value [3] was 0.20 (−0.24, 0.64), the “GAF: Between Placebo-NAC differences Week 8 LS Mean Difference (95% CI)” value [3] was −0.51 (−3.7, 2.7) and the “PANSS General: Between Placebo-NAC differences Week 8 LS Mean Difference (95% CI)” value [3] was −1.5 (−3.4, 0.34). The “PANSS Negative: Between Placebo-NAC differences Week 8 LS Mean Difference (95% CI)” value [3] was −0.49 (−1.8, 0.80), the “PANSS Positive: Between Placebo-NAC differences Week 8 LS Mean Difference (95% CI)” value [3] was −0.25 (−1.5, 0.98) and the “PANSS Total: Between Placebo-NAC differences Week 8 LS Mean Difference (95% CI)” value [3] was −2.6 (−6.1, 0.80). For the same molecule, the “SAS: Between Placebo-NAC differences Week 8 LS Mean Difference (95% CI)” value [3] was −0.06 (−0.39, 0.26), the “SOFAS: Between Placebo-NAC differences Week 8 LS Mean Difference (95% CI)” value [3] was −0.20 (−3.9, 3.5) and the “AIMS: Between Placebo-NAC differences Week 24 LS Mean Difference (95% CI)” value [4] was 0.12 (−0.65, 0.89). The “BAS: Between Placebo-NAC differences Week 24 LS Mean Difference (95% CI)” value [4] was 0.54 (0.08, 1.00)*, the “GAF: Between Placebo-NAC differences Week 24 LS Mean Difference (95% CI)” value [4] was −2.6 (−6.6, 1.3) and the “PANSS Positive: Between Placebo-NAC differences Week 24 LS Mean Difference (95% CI)” value [4] was 0.50 (−1.1, 2.1). The “SAS: Between Placebo-NAC differences Week 24 LS Mean Difference (95% CI)” value [4] was 0.11 (−0.27, 0.50), the “SOFAS: Between Placebo-NAC differences Week 24 LS Mean Difference (95% CI)” value [4] was −0.92 (−5.67, 3.82) and the “AIMS: NAC Mean Overall Change (95% CI) at post-treatment discontinuation” value [5] was −0.27 (−1.0, 0.50). The “BAS: NAC Mean Overall Change (95% CI) at post-treatment discontinuation” value [5] was 0.42 (−0.02, 0.86), the “CGI-S: NAC Mean Overall Change (95% CI) at post-treatment discontinuation” value [5] was −0.17 (−0.41, 0.08) and the “GAF: NAC Mean Overall Change (95% CI) at post-treatment discontinuation” value [5] was 0.37 (−2.7, 3.5). The “PANSS Positive: NAC Mean Overall Change (95% CI) at post-treatment discontinuation” value [5] was −0.96 (−2.0, 0.12), the “SAS: NAC Mean Overall Change (95% CI) at post-treatment discontinuation” value [5] was 0.30 (−0.06, 0.65) and the “SOFAS: NAC Mean Overall Change (95% CI) at post-treatment discontinuation” value [5] was −0.79 (−3.8, 2.2). For the same molecule, the “PANSS General: NAC Mean Overall Change (95% CI) at post-treatment discontinuation” value [6] was 0.18 (−1.7, 2.1), the “PANSS Negative: NAC Mean Overall Change (95% CI) at post-treatment discontinuation” value [6] was 0.60 (−0.55, 1.7) and the “PANSS Total: NAC Mean Overall Change (95% CI) at post-treatment discontinuation” value [6] was 0.56 (−2.4, 3.6). For the same molecule, the “Proportion of patients clinically improved on the CGI-I scale referred to baseline” value (week 28, after washout, NAC versus placebo) was “remained significantly greater” and the “More subjects in the NAC treatment group showing improvement on CGI-I compared to placebo” value (weeks 12, 16 and 24) was “≈ 25%”.
